Assay results reported in ChEMBL document CHEMBL5465560, “Selectivity Literature for EUbOPEN Chemogenomic Library” (2024).

Legend:
[1] = molecular target: T1, Serine/threonine-protein kinase D1 (Homo sapiens) (UniProt Q15139); experiment: Selectivity interaction (KinomeScan (DiscoverX)) EUB0000092b PRKD1; details: at 10 µM
T1 sequence (whole entry): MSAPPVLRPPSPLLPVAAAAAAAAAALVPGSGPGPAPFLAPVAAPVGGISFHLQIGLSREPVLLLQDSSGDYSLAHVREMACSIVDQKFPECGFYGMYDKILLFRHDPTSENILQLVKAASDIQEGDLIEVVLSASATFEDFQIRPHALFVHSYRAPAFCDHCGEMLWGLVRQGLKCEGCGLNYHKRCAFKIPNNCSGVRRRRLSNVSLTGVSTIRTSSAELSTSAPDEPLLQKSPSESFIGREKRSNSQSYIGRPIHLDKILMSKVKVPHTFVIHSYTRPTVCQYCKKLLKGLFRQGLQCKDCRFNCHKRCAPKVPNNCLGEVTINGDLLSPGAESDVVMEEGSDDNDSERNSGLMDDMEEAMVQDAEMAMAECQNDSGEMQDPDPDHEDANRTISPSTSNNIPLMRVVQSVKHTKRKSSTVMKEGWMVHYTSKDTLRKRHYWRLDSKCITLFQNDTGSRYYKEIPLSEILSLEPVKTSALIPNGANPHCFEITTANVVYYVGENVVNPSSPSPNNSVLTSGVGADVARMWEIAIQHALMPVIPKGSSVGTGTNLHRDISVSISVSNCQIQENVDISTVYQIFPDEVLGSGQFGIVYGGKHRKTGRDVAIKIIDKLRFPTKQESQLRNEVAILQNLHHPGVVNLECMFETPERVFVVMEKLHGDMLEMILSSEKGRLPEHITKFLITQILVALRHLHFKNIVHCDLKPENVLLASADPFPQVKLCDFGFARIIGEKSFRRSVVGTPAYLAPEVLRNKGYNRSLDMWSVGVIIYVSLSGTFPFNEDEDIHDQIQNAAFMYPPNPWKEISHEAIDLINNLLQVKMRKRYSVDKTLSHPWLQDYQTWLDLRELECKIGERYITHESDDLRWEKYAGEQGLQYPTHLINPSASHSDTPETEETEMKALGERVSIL

[2] = molecular target: T2, Inhibitor of nuclear factor kappa-B kinase subunit beta (Homo sapiens) (UniProt O14920); experiment: Selectivity interaction (KinomeScan (DiscoverX)) EUB0000655a IKBKB; details: at 10 µM
T2 sequence (whole entry): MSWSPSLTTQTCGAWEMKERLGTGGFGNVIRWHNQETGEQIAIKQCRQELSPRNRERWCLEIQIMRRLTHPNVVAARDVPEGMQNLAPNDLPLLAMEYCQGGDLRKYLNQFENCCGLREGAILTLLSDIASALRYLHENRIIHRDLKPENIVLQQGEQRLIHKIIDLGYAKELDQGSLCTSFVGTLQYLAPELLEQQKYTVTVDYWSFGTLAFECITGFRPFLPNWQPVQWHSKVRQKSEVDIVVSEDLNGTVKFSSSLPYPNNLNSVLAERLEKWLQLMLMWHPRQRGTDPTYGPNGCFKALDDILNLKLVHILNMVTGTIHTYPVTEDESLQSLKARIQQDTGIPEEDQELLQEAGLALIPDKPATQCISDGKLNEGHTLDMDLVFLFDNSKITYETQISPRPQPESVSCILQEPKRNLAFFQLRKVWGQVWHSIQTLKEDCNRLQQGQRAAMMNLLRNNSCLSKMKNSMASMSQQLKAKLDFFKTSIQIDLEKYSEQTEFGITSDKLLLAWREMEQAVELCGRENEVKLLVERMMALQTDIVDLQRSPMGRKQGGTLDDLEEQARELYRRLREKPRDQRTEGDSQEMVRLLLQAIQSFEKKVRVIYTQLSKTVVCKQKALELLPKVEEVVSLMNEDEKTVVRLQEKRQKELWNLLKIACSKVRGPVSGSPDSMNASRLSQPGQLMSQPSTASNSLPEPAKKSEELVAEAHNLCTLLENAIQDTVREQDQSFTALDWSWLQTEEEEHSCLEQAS

[3] = molecular target: T3, Serine/threonine-protein kinase greatwall (Homo sapiens) (UniProt Q96GX5); experiment: Selectivity interaction (ActivX KiNativ screen (kinase selectivity in THP-1 cell lysates)) EUB0000639a MASTL; type: subcellular; details: lysate, at 5 µM
T3 sequence (whole entry): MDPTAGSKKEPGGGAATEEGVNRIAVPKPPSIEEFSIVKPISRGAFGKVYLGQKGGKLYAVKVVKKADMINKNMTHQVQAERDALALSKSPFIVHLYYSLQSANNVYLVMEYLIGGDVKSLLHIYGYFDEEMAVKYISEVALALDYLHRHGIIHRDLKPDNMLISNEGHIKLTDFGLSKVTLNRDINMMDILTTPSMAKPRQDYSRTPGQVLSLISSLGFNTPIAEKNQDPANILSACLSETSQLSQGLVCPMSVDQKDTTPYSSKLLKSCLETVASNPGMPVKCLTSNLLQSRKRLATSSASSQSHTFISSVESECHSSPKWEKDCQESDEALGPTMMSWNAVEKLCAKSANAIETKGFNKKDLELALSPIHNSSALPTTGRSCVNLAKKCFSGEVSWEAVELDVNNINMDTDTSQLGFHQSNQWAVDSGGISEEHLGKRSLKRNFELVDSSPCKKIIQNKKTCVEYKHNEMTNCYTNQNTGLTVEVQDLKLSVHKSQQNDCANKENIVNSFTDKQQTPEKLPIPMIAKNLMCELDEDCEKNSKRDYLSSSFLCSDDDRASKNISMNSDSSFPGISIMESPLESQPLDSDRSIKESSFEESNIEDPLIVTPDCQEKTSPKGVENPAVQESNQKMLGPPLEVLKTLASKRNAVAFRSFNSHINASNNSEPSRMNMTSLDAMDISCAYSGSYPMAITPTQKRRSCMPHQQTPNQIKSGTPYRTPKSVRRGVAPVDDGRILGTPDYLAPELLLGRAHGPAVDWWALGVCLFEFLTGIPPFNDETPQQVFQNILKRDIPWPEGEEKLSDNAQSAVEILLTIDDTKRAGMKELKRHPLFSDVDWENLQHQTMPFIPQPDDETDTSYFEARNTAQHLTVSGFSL

Activated CDC42 kinase 1 = Activated CDC42 kinase 1 (Homo sapiens, UniProt Q07912); experiment: Selectivity interaction (KinomeScan (DiscoverX)) EUB0000607a TNK2; details: at 10 µM
[4] = molecular target: Ephrin type-A receptor 7 (Homo sapiens) (UniProt Q15375); experiment: Selectivity interaction (Ambit KINOMEscan and KiNATiv profiling in Jurkat cells) EUB0000090b EPHA7; type: cell-based; details: at 1 µM
Chain of Ephrin type-A receptor 7 (Homo sapiens) (Q15375 28-998 limits assumed): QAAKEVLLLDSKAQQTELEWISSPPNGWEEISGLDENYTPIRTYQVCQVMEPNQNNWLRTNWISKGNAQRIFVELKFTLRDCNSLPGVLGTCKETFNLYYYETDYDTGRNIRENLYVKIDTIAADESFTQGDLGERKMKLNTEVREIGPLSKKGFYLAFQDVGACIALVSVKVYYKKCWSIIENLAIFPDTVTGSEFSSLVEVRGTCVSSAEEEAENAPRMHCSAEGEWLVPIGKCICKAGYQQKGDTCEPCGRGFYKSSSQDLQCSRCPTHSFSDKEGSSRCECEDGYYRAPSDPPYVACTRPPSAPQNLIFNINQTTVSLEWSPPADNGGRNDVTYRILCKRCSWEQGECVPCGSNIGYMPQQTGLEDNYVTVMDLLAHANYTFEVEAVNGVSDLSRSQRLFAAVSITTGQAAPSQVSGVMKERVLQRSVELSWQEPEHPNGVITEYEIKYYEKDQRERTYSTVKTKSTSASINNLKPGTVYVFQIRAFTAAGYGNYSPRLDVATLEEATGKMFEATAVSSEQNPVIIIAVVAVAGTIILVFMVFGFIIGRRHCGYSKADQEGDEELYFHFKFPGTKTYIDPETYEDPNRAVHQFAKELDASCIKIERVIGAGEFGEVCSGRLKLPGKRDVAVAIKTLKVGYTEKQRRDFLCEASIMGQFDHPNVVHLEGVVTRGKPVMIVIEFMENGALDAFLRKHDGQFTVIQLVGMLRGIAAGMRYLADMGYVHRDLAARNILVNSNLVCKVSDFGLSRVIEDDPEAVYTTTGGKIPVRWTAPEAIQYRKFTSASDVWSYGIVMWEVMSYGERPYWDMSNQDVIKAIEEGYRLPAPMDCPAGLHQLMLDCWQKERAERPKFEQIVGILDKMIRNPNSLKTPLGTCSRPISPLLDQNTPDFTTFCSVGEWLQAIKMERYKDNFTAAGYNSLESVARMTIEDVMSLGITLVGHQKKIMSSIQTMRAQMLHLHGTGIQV

Chain of Activated CDC42 kinase 1 (Q07912 whole entry, looked up): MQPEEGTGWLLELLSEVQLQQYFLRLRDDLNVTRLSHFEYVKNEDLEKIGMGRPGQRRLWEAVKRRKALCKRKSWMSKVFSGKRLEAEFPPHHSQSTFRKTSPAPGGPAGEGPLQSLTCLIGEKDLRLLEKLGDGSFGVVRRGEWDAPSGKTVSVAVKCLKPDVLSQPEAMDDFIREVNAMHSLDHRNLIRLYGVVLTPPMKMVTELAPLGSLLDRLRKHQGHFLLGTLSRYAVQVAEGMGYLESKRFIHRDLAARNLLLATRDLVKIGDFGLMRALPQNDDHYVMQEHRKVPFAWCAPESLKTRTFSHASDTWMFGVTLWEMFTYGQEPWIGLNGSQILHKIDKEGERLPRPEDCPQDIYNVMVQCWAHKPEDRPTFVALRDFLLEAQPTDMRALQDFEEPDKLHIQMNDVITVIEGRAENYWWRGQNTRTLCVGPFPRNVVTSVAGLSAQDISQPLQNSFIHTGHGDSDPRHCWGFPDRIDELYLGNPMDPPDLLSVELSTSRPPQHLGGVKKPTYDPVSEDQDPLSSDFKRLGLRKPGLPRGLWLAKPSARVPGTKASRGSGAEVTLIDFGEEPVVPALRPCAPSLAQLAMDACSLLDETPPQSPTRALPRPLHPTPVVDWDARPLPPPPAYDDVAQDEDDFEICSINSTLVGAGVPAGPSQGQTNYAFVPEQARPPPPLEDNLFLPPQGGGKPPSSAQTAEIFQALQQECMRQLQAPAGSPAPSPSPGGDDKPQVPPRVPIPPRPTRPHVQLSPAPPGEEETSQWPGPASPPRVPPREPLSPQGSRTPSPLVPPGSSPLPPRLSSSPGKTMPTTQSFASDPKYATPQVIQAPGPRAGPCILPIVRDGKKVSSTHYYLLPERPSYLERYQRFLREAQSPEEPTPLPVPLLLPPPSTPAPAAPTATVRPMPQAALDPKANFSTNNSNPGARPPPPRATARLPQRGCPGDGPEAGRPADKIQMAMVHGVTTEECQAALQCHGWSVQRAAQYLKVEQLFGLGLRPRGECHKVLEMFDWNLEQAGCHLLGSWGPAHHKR

CCC(=O)N1CCN(c2ccc(-n3c(=O)ccc4cnc5ccc(-c6cnc7ccccc7c6)cc5c43)cc2C(F)(F)F)CC1
% of control [1]: 99%

CN(C)CCOc1ccc(-c2nc(-c3ccncc3)c(-c3ccc4c(c3)CC/C4=N\O)[nH]2)cc1
% of control [2]: 100%

CC[C@@H]1[C@H](F)C(=O)N[C@@H]1COc1nccc2cc(C(N)=O)c(OC)cc12 [ZIMLOVISERTIB]
% of inhibition [3]: 77.2%

CNC(=O)Nc1ccc(-c2nc(N3CC4CCC(C3)O4)c3cnn(C4CCC5(CC4)OCCO5)c3n2)cc1
% of control (Activated CDC42 kinase 1): 84%

CN(C)C/C=C/C(=O)Nc1ccc(C(=O)N2CCCC(Nc3ncc(Cl)c(-c4c[nH]c5ccccc45)n3)C2)cc1 (stereo not given)
% of control [4]: 93%
